Measurements published in patent publication US20100093715A1, “Plant productivity enhancement by combining chemical agents with transgenic modifications” (BASF SE, priority 2007, published 2010).

Legend:
[1] = test system: J553x(HIIIAxA188) null and transgenic corn; test: Fipronil/Pyraclostrobin study, initial trial: seed treatment, greenhouse growth, LemnaTec Scanalyzer imaging and harvest; format: in vivo, maize (Zea Mays L.); conditions: for Internode 1 length / Internode 2 length / Internode 3 length: seed treatment; for Fresh Weight: hand-collected
Description: (§1) J553x(HIIIAxA188) null and transgenic corn seeds of the T2 generation were treated with deionized water (Blank), 200 grams fipronil, 10 grams pyraclostrobin (F500), and 200 grams fipronil+10 grams pyraclostrobin; all formulation rates were grams/100 kg seed. Every formulation was applied to approximately 80 seeds. The formulation was pipetted into a 125 ml flask along the sides and bottom of the flask before adding the seeds and shaking the flask for 30 seconds. The coated seeds were then removed from the flask and placed in a plastic dish for drying.
(§2) Seventy-five 3-L pots per treatment (Blank, fipronil, pyraclostrobin, and fipronil+pyraclostrobin) were filled with potting media, labeled with colored stakes, and given a unique barcode. One seed per pot was planted at a depth of approximately 2 cm and covered with media. The media was lightly watered to imbibe the seeds, while allowing for ample oxygen exchange and so that the chemical coatings on the seeds remained intact. After planting, the pots were randomly distributed into three replicate blocks (1 bench=1 block), each with 25 plants of every treatment.
(§3) The plants were maintained in a greenhouse under optimal, well-watered conditions (80-90% field capacity) upon emergence. Supplemental nutrients were administered every third day during watering. The greenhouse temperature was maintained at 30° C., relative humidity at 75%, and light at 350 μmol m^−2s^−1, in a 15-hour day/9-hour night photoperiod. Supplemental lighting was provided using metal-halide lights. Once per week, the pots were randomly mixed within each block.
(§4) On day 21, the plants were imaged to collect the phenotypic data as described in the Imaging Procedures section. Leaves were sampled for transgene copy number on day 25 to identify the null and transgenic plants. On day 28, the plants were imaged and then harvested to collect fresh weight. The presence of the transgene was determined by the Taqman molecular analysis technique. Differences in the phenotypic data collected during the imaging process and in fresh weight among the four treatments and between the null and transgenic plants were assessed. The chemical by transgenic interactions were determined.
(§5) Imaging of the plants was facilitated using a LemnaTec Scanalyzer (Würselen, Germany), which includes a conveyor belt, an imaging station, a watering station, and computers for collecting, processing, and storing the image data. The cameras have a resolution of 1280×960 pixels and operate in 24-bit color.
(§6) The plants were manually transferred by block onto the conveyor system of the scanalyzer. Each plant was then moved through the imager automatically. At the imaging station, cameras collected the top view image and two side view images. The side view images were the transverse view and the view parallel with the plane of the plant.
(§7) As described in the formula (see Appendix A), the scanalyzer calculates plant volume as a number of pixels. To assign a physiologically meaningful value to the volume measurements, a separate experiment was conducted. The plants were scanned with the scanalyzer then harvested. The plant material was placed into a graduated cylinder filled to a known volume with water. The difference between the water plus plant material and water alone provided a known plant volume in mL.
(§8) Using the LemnaTec scanalyzer, we collected stem width; stalk volume; top, transverse, and parallel view plant areas; top, transverse, and parallel view green and yellow pixel counts; stem length; leaf angles and internode lengths through leaf 5; plant width and height; total leaf length; and total plant length.
(§9) Fresh Weight—A measurement of the fresh weight of the plant in grams. Hand-collected fresh weight is measured by harvesting the plant and weighing it on a balance. LemnaTec fresh weight is calculated by the scanalyzer based on plant volume and plant age. The zoom angles of the camera lenses are normalized using a calibration table. […]

[2] = test system: J553x(HIIIAxA188) null and transgenic corn; test: Fipronil/Pyraclostrobin study, second trial: seed treatment, greenhouse growth, LemnaTec Scanalyzer imaging; format: in vivo, maize (Zea Mays L.)
Description: as §1, §2, §3, §4, §5, §6, §7, §8, §9

[3] = Fipronil-Worldwide technical Bulletin, BASF; cited from earlier work
[4] = initial trial, relative to all other treatments

## COC(=O)N(OC)c1ccccc1COc1ccn(-c2ccc(Cl)cc2)n1 [F500, pyraclostrobin]
[1]; Avg
  # Fully Expanded Leaves: 3.0
  Leaf Angle 0: 46.6 degrees
  Leaf Angle 1: 37.4 degrees
  Plant Volume: 6.43E+06 pixels
  Stem Length: 104.4 cm
  stalk area from the transverse view, Pixel Count: 4724 pixels
  Fresh Weight: 155.3 grams
[1]; Avg of null and transgenic
  Internode 1 length: 34.3 cm
  Internode 2 length: 38.4 cm
  Internode 3 length: 40.7 cm
[1]; Null plants
  # Fully Expanded Leaves: 2.9
  Leaf Angle 0: 39.2 degrees
  Leaf Angle 1: 36.5 degrees
  Plant Volume: 6.18E+06 pixels
  Stem Length: 97.2 cm
  stalk area from the transverse view, Pixel Count: 4725 pixels
  Internode 1 length: 32.5 cm
  Internode 2 length: 36.0 cm
  Internode 3 length: 38.8 cm
  Fresh Weight: 155.7 grams
[1]; Trans (transgenic) plants
  Internode 1 length: 35.9 cm
  Internode 2 length: 40.4 cm
  Internode 3 length: 42.1 cm
[1]; Trans plants
  # Fully Expanded Leaves: 3.1
  Leaf Angle 0: 52.5 degrees
  Leaf Angle 1: 38.2 degrees
  Plant Volume: 6.63E+06 pixels
  Stem Length: 110.2 cm
  stalk area from the transverse view, Pixel Count: 4723 pixels
  Fresh Weight: 155.0 grams
[1]; parallel view, Avg
  Dark Green Count: 14884.7 pixels
  Medium Green Count: 6153.1 pixels
  Plant Area: 23089.7 pixels
  Yellow Count: 2051.9 pixels
[1]; parallel view, Null plants
  Dark Green Count: 14727.7 pixels
  Medium Green Count: 5691.8 pixels
  Plant Area: 22426.2 pixels
  Yellow Count: 2006.6 pixels
[1]; parallel view, Trans plants
  Dark Green Count: 15010.4 pixels
  Medium Green Count: 6522.1 pixels
  Plant Area: 23620.6 pixels
  Yellow Count: 2088.1 pixels
[1]; top view, Avg
  Medium Green Count: 18542 pixels
[1]; top view, Null plants
  Medium Green Count: 17893 pixels
[1]; top view, Trans plants
  Medium Green Count: 19062 pixels
[1]; transverse view, Avg
  Medium Green Count: 9584.5 pixels
  Yellow Count: 4227.2 pixels
[1]; transverse view, Null plants
  Medium Green Count: 9303.7 pixels
  Yellow Count: 4081.7 pixels
[1]; transverse view, Trans plants
  Medium Green Count: 9809.2 pixels
  Yellow Count: 4343.5 pixels
[2]
  Plant volume, significance of treatment: significant at 99%
  dark green pixel count, significance of treatment: significant at 99%
[2]; Avg
  Broad Side Drk Grn: 26984.96 pixels
  Broad Side Plnt Area: 38169.74 pixels
  Calc Fresh Weight: 105.47 g
  Narrow Side Drk Grn: 27393.61 pix
  Plant Volume: 10.47 M pixels
  Top Drk Grn: 59991.92 pixels
[2]; Null plants
  Broad Side Drk Grn: 26088.87 pixels
  Broad Side Plnt Area: 36740.30 pixels
  Calc Fresh Weight: 100.53 g
  Narrow Side Drk Grn: 26394.93 pix
  Plant Volume: 9.90 M pixels
  Top Drk Grn: 57676.78 pixels
[2]; Trans plants
  Broad Side Drk Grn: 27881.04 pixels
  Broad Side Plnt Area: 39599.17 pixels
  Calc Fresh Weight: 110.41 g
  Narrow Side Drk Grn: 28392.28 pix
  Plant Volume: 11.04 M pixels
  Top Drk Grn: 62307.07 pixels
[2]; in general
  photosynthetic health (in words): enhanced
  plant size (in words): enhanced

## N#Cc1nn(-c2c(Cl)cc(C(F)(F)F)cc2Cl)c(N)c1[S+]([O-])C(F)(F)F (stereo not drawn) [Fipronil, 5-amino-1-(2,6-dichloro-α,α,α-trifluoro-p-tolyl)-4-trifluoromethylsulfinylpyrazole-3-carbonitrile]
[1]; Avg
  # Fully Expanded Leaves: 3.0
  Leaf Angle 0: 63.2 degrees
  Leaf Angle 1: 58.9 degrees
  Plant Volume: 6.70E+06 pixels
  Stem Length: 108.8 cm
  stalk area from the transverse view, Pixel Count: 4910 pixels
  Fresh Weight: 162.8 grams
[1]; Avg of null and transgenic
  Internode 1 length: 35.9 cm
  Internode 2 length: 44.2 cm
  Internode 3 length: 40.0 cm
[1]; Null plants
  # Fully Expanded Leaves: 3.1
  Leaf Angle 0: 57.5 degrees
  Leaf Angle 1: 63.6 degrees
  Plant Volume: 6.53E+06 pixels
  Stem Length: 110.4 cm
  stalk area from the transverse view, Pixel Count: 5081 pixels
  Internode 1 length: 35.3 cm
  Internode 2 length: 45.9 cm
  Internode 3 length: 42.4 cm
  Fresh Weight: 160.9 grams
[1]; Trans (transgenic) plants
  Internode 1 length: 36.6 cm
  Internode 2 length: 42.5 cm
  Internode 3 length: 37.7 cm
[1]; Trans plants
  # Fully Expanded Leaves: 3.0
  Leaf Angle 0: 68.7 degrees
  Leaf Angle 1: 54.4 degrees
  Plant Volume: 6.86E+06 pixels
  Stem Length: 107.1 cm
  stalk area from the transverse view, Pixel Count: 4744 pixels
  Fresh Weight: 164.7 grams
[1]; initial trial, in general
  fresh mass (in words): enhanced
  plant height (in words): enhanced
  plant volume (in words): enhanced
  plant width (in words): enhanced
[1]; [4]
  greenness (in words): enhanced
  internode length (in words): enhanced
  leaf angle (in words): enhanced
  plant area (in words): enhanced
[1]; parallel view, Avg
  Dark Green Count: 16389.5 pixels
  Medium Green Count: 5662.4 pixels
  Plant Area: 23760.8 pixels
  Yellow Count: 1708.9 pixels
[1]; parallel view, Null plants
  Dark Green Count: 15955.0 pixels
  Medium Green Count: 5470.9 pixels
  Plant Area: 23035.0 pixels
  Yellow Count: 1609.1 pixels
[1]; parallel view, Trans plants
  Dark Green Count: 16812.3 pixels
  Medium Green Count: 5848.7 pixels
  Plant Area: 24467.0 pixels
  Yellow Count: 1806.0 pixels
[1]; top view, Avg
  Medium Green Count: 17465 pixels
[1]; top view, Null plants
  Medium Green Count: 17038 pixels
[1]; top view, Trans plants
  Medium Green Count: 17881 pixels
[1]; transverse view, Avg
  Medium Green Count: 9089.0 pixels
  Yellow Count: 3363.6 pixels
[1]; transverse view, Null plants
  Medium Green Count: 9132.8 pixels
  Yellow Count: 3268.7 pixels
[1]; transverse view, Trans plants
  Medium Green Count: 9046.4 pixels
  Yellow Count: 3455.9 pixels
[2]; Avg
  Broad Side Drk Grn: 25067.65 pixels
  Broad Side Plnt Area: 35413.12 pixels
  Calc Fresh Weight: 100.77 g
  Narrow Side Drk Grn: 25969.34 pix
  Plant Volume: 9.19 M pixels
  Top Drk Grn: 57132.20 pixels
[2]; Null plants
  Broad Side Drk Grn: 26176.97 pixels
  Broad Side Plnt Area: 36398.18 pixels
  Calc Fresh Weight: 99.88 g
  Narrow Side Drk Grn: 24703.55 pix
  Plant Volume: 8.89 M pixels
  Top Drk Grn: 56608.71 pixels
[2]; Trans plants
  Broad Side Drk Grn: 23958.33 pixels
  Broad Side Plnt Area: 34428.06 pixels
  Calc Fresh Weight: 101.65 g
  Narrow Side Drk Grn: 27235.14 pix
  Plant Volume: 9.50 M pixels
  Top Drk Grn: 57655.69 pixels
[3]
  reported plant performance effects: enhance overall root system and root hair development, increase tiller number and productivity, increase photosynthetic capacity (plant greenness), increase leaf area and plant height, stimulate early flowering and grain maturation leading to significant increases in yield
